Laboratory results as given in the Kinase Knowledgebase extract (Sharma et al. 2016).

How the values were obtained:
PIK3CA (human) = PIK3CA (human) (UniProt P42336); assay: Inhibition of PIK3CA Kinase Activity
PIK3CB (Human) = PIK3CB (Human) (UniProt P42338); assay: Inhibition of PIK3CB Kinase Activity
PIK3CG;PIK3CA (human) = PIK3CG;PIK3CA (human) (UniProt P48736); assay: Antiproliferation of PC3-MM2 Cells; conditions: pc-3
CDK2 (human) = CDK2 (human) (UniProt P24941); assay: Enzyme Assay
MAPK14 [1] = molecular target: MAPK14 (UniProt Q16539)
EGFR [2] = molecular target: EGFR (UniProt P00533); conditions: cho.ir
EGFR [3] = molecular target: EGFR (UniProt P00533)
MAPK14 [4] = molecular target: MAPK14 (UniProt Q16539); assay: p38-alpha Kinase Inhibition
EGFR (mouse) = EGFR (mouse) (UniProt P00533)
EGFR (Hamster) = EGFR (Hamster) (UniProt P00533)
EGFR [5] = molecular target: EGFR (UniProt P00533); remark: listed apart in the source
EGFR [6] = molecular target: EGFR (UniProt P00533); remark: listed apart in the source
PIK3CD (Human) [7] = molecular target: PIK3CD (Human) (UniProt O00329); assay: Enzyme Assay
PIK3CG (human) [8] = molecular target: PIK3CG (human) (UniProt P48736); assay: Enzyme Assay
PIK3CG (human) [9] = molecular target: PIK3CG (human) (UniProt P48736); assay: Inhibition of PIK3CG Kinase Activity
PIK3CD (Human) [10] = molecular target: PIK3CD (Human) (UniProt O00329); assay: Inhibition of PIK3CD Kinase Activity
ROCK2 (human) = ROCK2 (human) (UniProt O75116)
MAPK14 [11] = molecular target: MAPK14 (UniProt Q16539); assay: Enzyme Assay
EGFR [12] = molecular target: EGFR (UniProt P00533); conditions: concentration not given here

Chain of PIK3CG (human) (P48736 whole entry, looked up): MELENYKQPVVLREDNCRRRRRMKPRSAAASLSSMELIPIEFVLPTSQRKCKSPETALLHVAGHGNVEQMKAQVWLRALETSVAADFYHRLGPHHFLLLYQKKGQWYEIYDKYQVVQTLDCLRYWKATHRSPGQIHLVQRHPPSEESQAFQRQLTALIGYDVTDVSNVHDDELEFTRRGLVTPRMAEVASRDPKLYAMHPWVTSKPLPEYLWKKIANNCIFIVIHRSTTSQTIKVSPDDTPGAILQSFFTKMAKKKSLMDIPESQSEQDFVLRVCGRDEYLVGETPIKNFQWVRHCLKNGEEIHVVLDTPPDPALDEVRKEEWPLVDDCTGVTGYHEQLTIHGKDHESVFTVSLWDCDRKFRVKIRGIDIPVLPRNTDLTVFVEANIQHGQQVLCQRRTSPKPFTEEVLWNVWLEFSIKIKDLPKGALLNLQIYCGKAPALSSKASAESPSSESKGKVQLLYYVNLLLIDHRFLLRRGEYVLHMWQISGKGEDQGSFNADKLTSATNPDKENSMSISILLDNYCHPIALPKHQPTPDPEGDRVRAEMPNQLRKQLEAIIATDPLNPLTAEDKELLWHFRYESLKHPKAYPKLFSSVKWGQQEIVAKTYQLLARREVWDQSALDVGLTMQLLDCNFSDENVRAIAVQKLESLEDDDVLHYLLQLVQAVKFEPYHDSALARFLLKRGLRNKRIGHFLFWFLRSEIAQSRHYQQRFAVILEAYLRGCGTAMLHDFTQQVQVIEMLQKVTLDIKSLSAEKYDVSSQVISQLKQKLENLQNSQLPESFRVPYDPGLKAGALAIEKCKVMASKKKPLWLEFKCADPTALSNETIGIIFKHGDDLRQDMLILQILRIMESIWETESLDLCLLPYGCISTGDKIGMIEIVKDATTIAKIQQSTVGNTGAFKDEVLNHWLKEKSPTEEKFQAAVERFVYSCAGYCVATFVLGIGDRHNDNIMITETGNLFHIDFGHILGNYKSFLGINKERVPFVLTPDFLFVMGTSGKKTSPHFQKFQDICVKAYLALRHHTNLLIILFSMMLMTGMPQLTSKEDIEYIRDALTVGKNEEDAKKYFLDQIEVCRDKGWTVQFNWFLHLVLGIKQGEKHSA
Chain of PIK3CG;PIK3CA (human) (P48736 whole entry, looked up): as above
Chain of MAPK14 (Q16539 whole entry, looked up): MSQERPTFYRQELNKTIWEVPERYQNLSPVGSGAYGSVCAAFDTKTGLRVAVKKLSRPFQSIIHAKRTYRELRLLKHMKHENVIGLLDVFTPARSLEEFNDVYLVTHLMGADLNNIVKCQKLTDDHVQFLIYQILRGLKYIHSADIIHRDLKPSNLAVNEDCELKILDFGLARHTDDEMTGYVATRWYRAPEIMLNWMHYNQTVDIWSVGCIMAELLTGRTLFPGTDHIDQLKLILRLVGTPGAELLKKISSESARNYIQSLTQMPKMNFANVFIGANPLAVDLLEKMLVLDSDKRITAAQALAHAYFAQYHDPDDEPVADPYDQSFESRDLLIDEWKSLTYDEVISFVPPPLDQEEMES
Chain of EGFR (Hamster) (P00533 whole entry, looked up): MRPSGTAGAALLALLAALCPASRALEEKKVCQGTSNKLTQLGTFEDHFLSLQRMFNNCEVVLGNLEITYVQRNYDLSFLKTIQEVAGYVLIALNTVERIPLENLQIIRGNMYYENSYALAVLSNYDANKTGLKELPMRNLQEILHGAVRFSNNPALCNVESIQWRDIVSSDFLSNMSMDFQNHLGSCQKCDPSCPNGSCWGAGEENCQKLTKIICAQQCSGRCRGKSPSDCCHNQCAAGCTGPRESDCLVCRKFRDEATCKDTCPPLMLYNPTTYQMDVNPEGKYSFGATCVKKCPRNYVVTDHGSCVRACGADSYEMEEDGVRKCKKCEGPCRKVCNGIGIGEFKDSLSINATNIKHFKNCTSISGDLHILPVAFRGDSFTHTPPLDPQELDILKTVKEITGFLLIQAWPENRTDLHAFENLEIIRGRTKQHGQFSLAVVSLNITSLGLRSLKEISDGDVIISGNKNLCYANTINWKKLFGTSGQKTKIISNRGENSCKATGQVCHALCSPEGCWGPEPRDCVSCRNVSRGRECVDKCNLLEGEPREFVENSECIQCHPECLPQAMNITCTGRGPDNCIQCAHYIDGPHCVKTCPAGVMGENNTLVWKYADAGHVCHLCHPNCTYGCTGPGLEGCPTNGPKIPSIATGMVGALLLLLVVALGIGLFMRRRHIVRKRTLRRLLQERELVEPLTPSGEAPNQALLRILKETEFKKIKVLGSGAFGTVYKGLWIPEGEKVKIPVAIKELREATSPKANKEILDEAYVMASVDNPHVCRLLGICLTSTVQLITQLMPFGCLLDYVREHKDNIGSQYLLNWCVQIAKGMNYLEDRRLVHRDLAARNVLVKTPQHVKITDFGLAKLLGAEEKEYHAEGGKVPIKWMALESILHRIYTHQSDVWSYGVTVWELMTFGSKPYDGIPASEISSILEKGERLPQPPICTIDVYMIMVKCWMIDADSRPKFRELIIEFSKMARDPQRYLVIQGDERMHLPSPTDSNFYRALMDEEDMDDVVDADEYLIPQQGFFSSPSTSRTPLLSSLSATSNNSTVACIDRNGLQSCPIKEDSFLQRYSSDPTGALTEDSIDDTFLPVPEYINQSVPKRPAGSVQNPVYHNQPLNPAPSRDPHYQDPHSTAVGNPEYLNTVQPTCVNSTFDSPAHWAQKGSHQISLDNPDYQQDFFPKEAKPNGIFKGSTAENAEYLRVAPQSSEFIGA
Chain of EGFR (P00533 whole entry, looked up): as above
Chain of PIK3CA (human) (P42336 whole entry, looked up): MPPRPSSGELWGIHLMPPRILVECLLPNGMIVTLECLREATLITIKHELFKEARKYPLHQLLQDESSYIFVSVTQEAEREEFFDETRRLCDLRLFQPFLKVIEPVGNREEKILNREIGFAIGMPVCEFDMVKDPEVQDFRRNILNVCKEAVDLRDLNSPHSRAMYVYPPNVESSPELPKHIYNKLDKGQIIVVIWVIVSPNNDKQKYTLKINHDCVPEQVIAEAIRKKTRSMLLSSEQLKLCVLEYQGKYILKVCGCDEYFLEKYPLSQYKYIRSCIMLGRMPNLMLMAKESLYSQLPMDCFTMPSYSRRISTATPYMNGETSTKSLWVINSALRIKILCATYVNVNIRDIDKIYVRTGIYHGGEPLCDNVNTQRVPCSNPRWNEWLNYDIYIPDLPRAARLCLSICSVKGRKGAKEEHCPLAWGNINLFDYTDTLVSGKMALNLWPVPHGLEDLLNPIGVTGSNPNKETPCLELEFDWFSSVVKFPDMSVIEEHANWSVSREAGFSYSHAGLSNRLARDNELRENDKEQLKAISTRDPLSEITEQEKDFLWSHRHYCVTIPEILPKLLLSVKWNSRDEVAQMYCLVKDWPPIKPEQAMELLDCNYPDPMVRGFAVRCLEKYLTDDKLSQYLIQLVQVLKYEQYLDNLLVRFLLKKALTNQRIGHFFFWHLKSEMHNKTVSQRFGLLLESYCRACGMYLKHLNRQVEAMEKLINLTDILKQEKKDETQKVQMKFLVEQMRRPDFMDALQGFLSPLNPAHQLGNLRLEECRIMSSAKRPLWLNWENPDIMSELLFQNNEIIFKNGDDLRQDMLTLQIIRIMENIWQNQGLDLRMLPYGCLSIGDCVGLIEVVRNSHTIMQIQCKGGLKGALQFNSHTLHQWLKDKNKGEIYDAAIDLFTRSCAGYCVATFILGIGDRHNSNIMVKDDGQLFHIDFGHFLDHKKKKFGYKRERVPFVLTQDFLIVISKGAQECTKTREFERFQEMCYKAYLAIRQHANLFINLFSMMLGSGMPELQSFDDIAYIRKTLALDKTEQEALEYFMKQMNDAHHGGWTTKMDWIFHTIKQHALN

Cc1nc(N)nc2c1cc(-c1ccc(N)nc1)c(=O)n2[C@@H]1CCOC1 was tested, and the IC50 (PIK3CA (human)) was < 9.1 nM and the IC50 (PIK3CB (Human)) was 34 nM.
With COc1ccc2c(c1)c(/C=C1\Oc3cc(O)cc(O)c3C1=O)c1n2CCOC1 the IC50 (PIK3CG;PIK3CA (human)) was 1910 nM.
With COc1ccc2c(c1)c(/C=C1\Oc3cc(O)ccc3C1=O)c1n2CCNC1 the IC50 (PIK3CG;PIK3CA (human)) was 1510 nM.
For CC[C@H](Nc1nc(NCc2ccc(C)nc2)c2ncn(C(C)C)c2n1)[C@@H](C)O, the IC50 (CDK2 (human)) was 3250 nM.
Fc1ccc(-c2ncn(C3CCNCC3)c2-c2ccnc(Oc3ccccc3)c2)cc1 was tested, and the inhibition (MAPK14 [1]) was < 50 µM.
COc1ccc2c(c1)c(/C=C1\Oc3cc(O)cc(O)c3C1=O)c1n2CCN(C)C1=O was tested, and the IC50 (PIK3CG;PIK3CA (human)) was 5050 nM.
COc1ccc(Oc2cc(-c3c(-c4ccc(F)cc4)ncn3C3CCNCC3)ccn2)cc1 was tested, and the inhibition (MAPK14 [1]) was < 50 µM.
With C=CC(C)(C)c1[nH]c2ccccc2c1C1=C(O)C(=O)C(c2c[nH]c3c(CC=C(C)C)cccc23)=C(O)C1=O the EC50 (EGFR [2]) was 15000 nM.
For O=C(Nc1ccc(F)cc1)Nc1ncnc2nn3ccccc3c12, the IC50 (EGFR [3]) was > 10000 nM.
O=C(c1ccc2[nH]c3c(c2c1)CCNC3)N1CCC(Cc2ccccc2)CC1 showed an IC50 (MAPK14 [4]) of 330 nM.
For O=C1C(O)=C(c2c[nH]c3ccccc23)C(=O)C(O)=C1c1ccccc1, the EC50 (EGFR [2]) was 20000 nM.
Work on CCCCC[C@H](Cc1ccc2c3c(c[nH]c13)C[C@@H](CO)NC(=O)[C@H](C(C)C)N2C)NC(=O)c1ccc(N=[N+]=[N-])cc1 yielded an ID50 (EGFR (mouse)) of 89 nM.
O=C(Nc1cccc([N+](=O)[O-])c1)Nc1ncnc2nn3ccccc3c12 was tested, and the IC50 (EGFR [3]) was > 10000 nM.
With O=C(O)c1cc(N=Cc2ccccc2O)ccc1O the IC50 (EGFR (Hamster)) was > 100000 nM.
Work on CC[C@H](Nc1nc(NCc2cccc(F)c2)c2ncn(C(C)C)c2n1)[C@@H](C)O yielded an IC50 (CDK2 (human)) of 120 nM.
With COc1ccc2c(c1)c(/C=C1\Oc3cc(O)cc(O)c3C1=O)c1n2CCNC1 the IC50 (PIK3CG;PIK3CA (human)) was 2190 nM.
In the case of Cn1nnnc1Sc1cc(-c2c(-c3ccc(F)cc3)ncn2C2CCNCC2)ccn1, the inhibition (MAPK14 [1]) is reported as < 50 µM.
Compound COc1ccc2ncnc(Nc3cccc(Br)c3)c2c1 has an IC50 (EGFR [5]) of 30 nM.
In the case of O=C(O)c1cccc(N=Cc2cc(O)ccc2O)c1, the IC50 (EGFR (Hamster)) is reported as > 10000 nM.
For O=C(Nc1cccc(C(F)(F)F)c1)Nc1ncnc2nn3ccccc3c12, the IC50 (EGFR [3]) was > 10000 nM.
In the case of CN(C)CCCn1nc(C2=C(c3cn(-c4cccnc4)c4ccccc34)C(=O)NC2=O)c2ccccc21, the IC50 (EGFR [6]) is reported as > 10000 nM.
With O=C(Nc1ccc(Br)cc1)Nc1ncnc2nn3ccccc3c12 the IC50 (EGFR [3]) was > 10000 nM.
CC[C@@](C)(CCCC(C)(C)SCCNC(=O)c1ccc(N=[N+]=[N-])cc1)c1ccc2c3c(c[nH]c13)C[C@@H](CO)NC(=O)[C@H](C(C)C)N2C showed an ID50 (EGFR (mouse)) of 4.4 nM.
With CN(C)CCCn1nc(C2=C(c3cn(-c4cccc5ccccc45)c4ccccc34)C(=O)NC2=O)c2ccccc21 the IC50 (EGFR [6]) was > 10000 nM.
With CC(C)[C@H]1C(=O)N[C@H](CO)Cc2c[nH]c3c(CCNC(=O)c4ccc(N=[N+]=[N-])cc4)ccc(c23)N1C the ID50 (EGFR (mouse)) was 1320 nM.
Compound Cc1nc2cnc3ccc(C#Cc4cccnc4)cc3c2n1-c1ccc(C(C)(C)C#N)cc1 has an IC50 (PIK3CD (Human) [7]) of 34 nM, an IC50 (PIK3CG (human) [8]) of 112 nM and an IC50 (PIK3CA (human)) of 56 nM. It also gave an IC50 (PIK3CG (human) [9]) of 117 nM, an IC50 (PIK3CD (Human) [10]) of 35 nM and an IC50 (PIK3CB (Human)) of 446 nM.
Work on COc1cccc2c1CNC(C(=O)Nc1ccc(-c3cn[nH]c3)cc1OCCN(C)C)C2 (configuration not stated) yielded an IC50 (ROCK2 (human)) of 334 nM.
In the case of COc1ccc(C2=C(O)C(=O)C(c3ccccc3)=C(O)C2=O)cc1, the activation (EGFR [2]; concentration not given here) is reported as < 5%.
Work on Cc1cccc(C(=O)c2ccc(Nc3ccc(N)cc3)cc2Cl)c1 yielded an IC50 (MAPK14 [11]) of 190 nM.
Cc1ccc(-n2nc(C(C)(C)C)cc2NC(=O)Nc2cc(C)c(OCCN3CCOCC3)c3ccccc23)cc1 showed a Kd (MAPK14 [11]) of 14 nM.
For Fc1ccc(Oc2nccc(-c3c(-c4ccc(F)cc4)ncn3CCCN3CCOCC3)n2)cc1, the inhibition (MAPK14 [1]) was < 50 µM.
For COC(=O)c1cc(NCc2cc(OC)ccc2OC)ccc1O, the IC50 (EGFR (Hamster)) was > 100000 nM.
With CCN1Cc2ccc(OC)cc2C[C@@H]1C(=O)Nc1ccc(-c2cn[nH]c2)cc1OCCN(C)C the IC50 (ROCK2 (human)) was 9 nM.
Compound COc1cc2c(Nc3cccc(Br)c3)ncnc2cn1 has an IC50 (EGFR [5]) of 0.0026 nM.
CN(C)CCCn1nc(C2=C(c3cn(-c4csc5ccccc45)c4ccccc34)C(=O)NC2=O)c2ccccc21 was tested, and the IC50 (EGFR [6]) was > 10000 nM.
CC1(C)CNC(=O)c2sc(N3CCOC[C@@H]3Cc3c[nH]c4ncccc34)nc2C1 gave an IC50 (PIK3CA (human)) of 59 nM, an IC50 (PIK3CG (human) [9]) of 31 nM and an IC50 (PIK3CD (Human) [10]) of 18 nM. It also gave an IC50 (PIK3CB (Human)) of 1010 nM.
CN(C)CCCn1nc(C2=C(c3cn(-c4cnc5ccccc5c4)c4ccccc34)C(=O)NC2=O)c2ccccc21 was tested, and the IC50 (EGFR [6]) was > 10000 nM.
With COC(=O)c1cc(N=Cc2ccc(O)cc2O)ccc1O the IC50 (EGFR (Hamster)) was > 100000 nM.
NN=C1CCc2c(sc(NC(=O)C3CC3)c2C(N)=O)C1 was tested, and the inhibition (EGFR [12]) was > 50%.
Work on C=CCN(/C=C1/C(=O)O[C@H](COC)[C@@]2(C)C1=C(O)C(=O)C1=C2[C@H](OC(C)=O)C[C@]2(C)C(O)CC[C@H]12)CC=C (some centres not stated) yielded an IC50 (PIK3CA (human)) of 14 nM, an IC50 (PIK3CG (human) [9]) of 148 nM and an IC50 (PIK3CD (Human) [10]) of 131 nM. The IC50 (PIK3CB (Human)) was 57 nM.
